Results published in PubChem BioAssay AID1963833 (Molecular Pharmacology Branch, DTP, NCI, 2024).

Test system: 883617-216-R-J1-PDC complex spheroid viability
Assay: Anticancer human tumor 883617-216-R-J1-PDC patient-derived bladder carcinoma cell line growth inhibition [POLQ]
Details: for IC50: curve of first compound; for viability, T/C: stronger effect = lower value
Summary of the method: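 Growth inhibition in 3D: complex spheroids (tumor PDC, HUVEC, MSC) treated with POLQ inhibitor combinations; where Cmax unknown, highest tested concentration 10 microM, except SN-38 at 1 microM.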

[1] = second compound 0.0316 µM, first compound 0.0316 µM
[2] = second compound 0.0316 µM, first compound 0.1 µM
[3] = second compound 0.0316 µM, first compound 0.316 µM
[4] = second compound 0.0316 µM, first compound 1 µM
[5] = second compound 0.0316 µM, first compound 3.16 µM
[6] = second compound 0.0316 µM, first compound 10 µM
[7] = second compound 0.1 µM, first compound 0.0316 µM
[8] = second compound 0.1 µM, first compound 0.1 µM
[9] = second compound 0.1 µM, first compound 0.316 µM
[10] = second compound 0.1 µM, first compound 1 µM
[11] = second compound 0.1 µM, first compound 3.16 µM
[12] = second compound 0.1 µM, first compound 10 µM
[13] = second compound 0.316 µM, first compound 0.0316 µM
[14] = second compound 0.316 µM, first compound 0.1 µM
[15] = second compound 0.316 µM, first compound 0.316 µM
[16] = second compound 0.316 µM, first compound 1 µM
[17] = second compound 0.316 µM, first compound 3.16 µM
[18] = second compound 0.316 µM, first compound 10 µM
[19] = second compound 1 µM, first compound 0.0316 µM
[20] = second compound 1 µM, first compound 0.1 µM
[21] = second compound 1 µM, first compound 0.316 µM
[22] = second compound 1 µM, first compound 1 µM
[23] = second compound 1 µM, first compound 3.16 µM
[24] = second compound 1 µM, first compound 10 µM
[25] = second compound 3.16 µM, first compound 0.0316 µM
[26] = second compound 3.16 µM, first compound 0.1 µM
[27] = second compound 3.16 µM, first compound 0.316 µM
[28] = second compound 3.16 µM, first compound 1 µM
[29] = second compound 3.16 µM, first compound 3.16 µM
[30] = second compound 3.16 µM, first compound 10 µM
[31] = second compound 10 µM, first compound 0.0316 µM
[32] = second compound 10 µM, first compound 0.1 µM
[33] = second compound 10 µM, first compound 0.316 µM
[34] = second compound 10 µM, first compound 1 µM
[35] = second compound 10 µM, first compound 3.16 µM
[36] = second compound 10 µM, first compound 10 µM
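Note: spheroids exposed to compounds for seven days before readout.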
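Throughout, for viability, T/C: 100% = DMSO vehicle control viability.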

## CC1COCCN1c1cc(-c2ccnn2C)c2ccnc(-c3ccn[nH]3)c2n1 (stereo unspecified) + Nc1ccc(C#CCN(C(=O)Cc2ncc(C(F)(F)F)cc2C(F)(F)F)c2ccc(F)cc2)nn1
Second compound 0.0316 µM
  IC50: 0.292 µM
Second compound 0.1 µM
  IC50: 0.408 µM
Second compound 0.316 µM
  IC50: 0.479 µM
Second compound 1 µM
  IC50: 0.422 µM
Second compound 3.16 µM
  IC50: 0.572 µM
Second compound 10 µM
  IC50: 0.482 µM
[1]
  viability, T/C: 76.9%
[2]
  viability, T/C: 65.1%
[3]
  viability, T/C: 48%
[4]
  viability, T/C: 35.7%
[5]
  viability, T/C: 36.3%
[6]
  viability, T/C: 25.3%
[7]
  viability, T/C: 73.1%
[8]
  viability, T/C: 59.3%
[9]
  viability, T/C: 59.1%
[10]
  viability, T/C: 33.6%
[11]
  viability, T/C: 32.6%
[12]
  viability, T/C: 24.9%
[13]
  viability, T/C: 75.4%
[14]
  viability, T/C: 58.4%
[15]
  viability, T/C: 59%
[16]
  viability, T/C: 41.4%
[17]
  viability, T/C: 34.9%
[18]
  viability, T/C: 26%
[19]
  viability, T/C: 68.2%
[20]
  viability, T/C: 60.5%
[21]
  viability, T/C: 51.7%
[22]
  viability, T/C: 41.7%
[23]
  viability, T/C: 44.8%
[24]
  viability, T/C: 34.8%
[25]
  viability, T/C: 70.9%
[26]
  viability, T/C: 61.3%
[27]
  viability, T/C: 56.1%
[28]
  viability, T/C: 44%
[29]
  viability, T/C: 39.1%
[30]
  viability, T/C: 28.9%
[31]
  viability, T/C: 84.5%
[32]
  viability, T/C: 70%
[33]
  viability, T/C: 59.5%
[34]
  viability, T/C: 35.4%
[35]
  viability, T/C: 40.1%
[36]
  viability, T/C: 34.4%

## CC1COCCN1c1cc(C2(S(C)(=N)=O)CC2)nc(-c2ccnc3[nH]ccc23)n1 (stereo unspecified) + Nc1ccc(C#CCN(C(=O)Cc2ncc(C(F)(F)F)cc2C(F)(F)F)c2ccc(F)cc2)nn1
Second compound 0.0316 µM
  IC50: 5.98 µM
Second compound 0.1 µM
  IC50: 5.7 µM
Second compound 0.316 µM
  IC50: 4.48 µM
Second compound 1 µM
  IC50: 4.27 µM
Second compound 3.16 µM
  IC50: 6.2 µM
Second compound 10 µM
  IC50: 3.53 µM
[1]
  viability, T/C: 110%
[2]
  viability, T/C: 108%
[3]
  viability, T/C: 89.2%
[4]
  viability, T/C: 76.8%
[5]
  viability, T/C: 59.7%
[6]
  viability, T/C: 42.5%
[7]
  viability, T/C: 82.7%
[8]
  viability, T/C: 101%
[9]
  viability, T/C: 89.8%
[10]
  viability, T/C: 76.4%
[11]
  viability, T/C: 62%
[12]
  viability, T/C: 39.6%
[13]
  viability, T/C: 96.7%
[14]
  viability, T/C: 111%
[15]
  viability, T/C: 93.1%
[16]
  viability, T/C: 73.4%
[17]
  viability, T/C: 56.7%
[18]
  viability, T/C: 40.2%
[19]
  viability, T/C: 99.5%
[20]
  viability, T/C: 90.3%
[21]
  viability, T/C: 87.5%
[22]
  viability, T/C: 65.4%
[23]
  viability, T/C: 56.6%
[24]
  viability, T/C: 37.4%
[25]
  viability, T/C: 114%
[26]
  viability, T/C: 93.1%
[27]
  viability, T/C: 97.6%
[28]
  viability, T/C: 82.3%
[29]
  viability, T/C: 63.8%
[30]
  viability, T/C: 39.4%
[31]
  viability, T/C: 98.1%
[32]
  viability, T/C: 105%
[33]
  viability, T/C: 102%
[34]
  viability, T/C: 83.7%
[35]
  viability, T/C: 52%
[36]
  viability, T/C: 37.5%

## CCCS(=O)(=O)Nc1ccc(F)c(C(=O)c2c[nH]c3ncc(-c4ccc(Cl)cc4)cc23)c1F + Nc1ccc(C#CCN(C(=O)Cc2ncc(C(F)(F)F)cc2C(F)(F)F)c2ccc(F)cc2)nn1
Second compound 0.0316 µM
  IC50: 9.41 µM
Second compound 0.1 µM
  IC50: 8.35 µM
Second compound 0.316 µM
  IC50: > 10 µM
Second compound 1 µM
  IC50: > 10 µM
Second compound 3.16 µM
  IC50: > 10 µM
Second compound 10 µM
  IC50: > 10 µM
[1]
  viability, T/C: 91.8%
[2]
  viability, T/C: 104%
[3]
  viability, T/C: 91.6%
[4]
  viability, T/C: 102%
[5]
  viability, T/C: 106%
[6]
  viability, T/C: 47.2%
[7]
  viability, T/C: 98.2%
[8]
  viability, T/C: 86%
[9]
  viability, T/C: 109%
[10]
  viability, T/C: 112%
[11]
  viability, T/C: 85%
[12]
  viability, T/C: 43.5%
[13]
  viability, T/C: 104%
[14]
  viability, T/C: 92.8%
[15]
  viability, T/C: 103%
[16]
  viability, T/C: 111%
[17]
  viability, T/C: 91.7%
[18]
  viability, T/C: 54.5%
[19]
  viability, T/C: 111%
[20]
  viability, T/C: 103%
[21]
  viability, T/C: 89.2%
[22]
  viability, T/C: 92.4%
[23]
  viability, T/C: 88.7%
[24]
  viability, T/C: 50.7%
[25]
  viability, T/C: 111%
[26]
  viability, T/C: 102%
[27]
  viability, T/C: 110%
[28]
  viability, T/C: 98.3%
[29]
  viability, T/C: 99.6%
[30]
  viability, T/C: 59.7%
[31]
  viability, T/C: 106%
[32]
  viability, T/C: 107%
[33]
  viability, T/C: 118%
[34]
  viability, T/C: 125%
[35]
  viability, T/C: 95.2%
[36]
  viability, T/C: 57.6%
